Data from US20260364184A1, “COMPOUND BASED ON OXOISOINDOLINYL-SUBSTITUTED TETRAHYDROPYRIMIDINE-DIONE AND USE THEREOF” (GLUETACS THERAPEUTICS (SHANGHAI) CO., LTD., priority 2023, published 2026).
Read-outs that look alike come from different tables or passages of the source.

What was measured:
[1] = system: Human Multiple myeloma cell line (MM.1S); assay: Inhibition of MM.1S cell proliferation (CellTiter luminescent viability); type: cell-based; conditions: Homo sapiens, MM1.S, Table IA5, IRAK4 inhibitor-based, 96 hours; for inhibition at 0.01 µM: 10 nM, read-out: Inhibition Rate at 10 nM (%); for inhibition at 0.5 µM: 500 nM, read-out: Inhibition Rate at 500 nM (%)
Procedure, shortened: (§1)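 Cells are seeded in 96-well plates, cultured at 37 °C, 5% CO2, and treated next day with 5-fold serial compound dilutions (stock series from 2000 μM; 0.5 μL into 100 μL medium). Viability is read by CellTiter-Meiluncell luminescence after the set exposure, and IC50 is taken from growth-inhibition curves.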

[2] = system: Human B-Cell Lymphoma Cells (RPMI-8226); assay: Inhibition of RPMI-8226 cell proliferation (CellTiter luminescent viability); type: cell-based; conditions: RPMI-8226, 500 nM, read-out: Inhibition Rate at 500 nM (%)
Protocol: (§2) The tumor cells used herein were cultured in a cell culture medium listed in table 3 at 37 °C in an incubator with 5% CO2. Prior to experimentation, all cell lines used were correctly identified by STR profiling, and tested negative for mycoplasma contamination using a mycoplasma detection kit through routine screenings.
(§3) The IC50 values of the compounds of the present disclosure (including the compounds in Table 1, Table 2, and Examples 1-468) were determined using the CellTiter-Meiluncell Luminescent Cell Viability Assay Kit from Dalian Meilun Biotech Co., Ltd. The detailed procedure is as follows: Tumor cells were seeded in 96-well cell culture plates at the densities specified in Table 4. On the following day, the test compounds of the present disclosure were subjected to serial dilution. The dilution can be performed according to one of the following two methods: • (1) The first dilution method: The test compounds of the present disclosure (including the compounds in Table 1, Table 2, and Examples 1-468) were subjected to 5-fold serial dilutions starting from a highest concentration of 2000 μM, resulting in a total of 9 concentrations from high to low (2000, 400, 80, 16, 3.2, 0.64, 0.128, 0.0256, 0.00512 μM). Subsequently, 0.5 μL of the test compound dilution was transferred into the 96-well plate containing the cells, with each well containing 100 μL of cell culture medium. […] Into the 96-well plate, the diluted test compounds and corresponding detection reagents were added, resulting in final test compound concentrations of 500 nM and 10 nM, respectively. The experimental procedure is described below using the diluted 2 μM test compound as an example.
(§4) 0.5 μL of the aforementioned diluted compound of the present disclosure (including the compounds in Table 1, Table 2, and Examples 1-468) was added to the seeded cells in 100 μL of medium, yielding a final test compound concentration of 10 nM. After the cells were treated with the compounds of the present disclosure for a specified period, the cell viability assay reagent was added to the culture medium according to the kit's instructions to determine cell viability. […] All controls were treated using the same procedure as the compounds of the present disclosure. The growth inhibition curves for the compounds of the present disclosure were plotted using Prism GraphPad software, and the IC50 values were calculated therefrom.

[3] = as above; type: cell-based; conditions: Homo sapiens, read-out: Inhibition Rate at 10 nM (%)
Protocol: as §2, §3, §4

[4] = system: Human myeloid monocytic leukemia cell line (MV-4-11); assay: Inhibition of MV-4-11 cell proliferation (CellTiter luminescent viability); type: cell-based; conditions: Homo sapiens, MV4-11, Table IA3, IRAK4 inhibitor-based, 96 hours; for inhibition at 0.01 µM: MV-4-11, 10 nM, read-out: Inhibition Rate at 10 nM (%); for inhibition at 0.5 µM: MV-4-11, 500 nM, read-out: Inhibition Rate at 500 nM (%)
Procedure, shortened: as §1

[5] = system: Human Acute T Lymphoblastic Leukemia Cells (Molt-4); assay: Inhibition of Molt-4 cell proliferation (CellTiter luminescent viability); type: cell-based; conditions: Homo sapiens, MOLT-4, 96 h, Table IA2, IRAK4 inhibitor-based, 96 hours; for inhibition at 0.01 µM: Molt-4, 10 nM, read-out: Inhibition Rate at 10 nM (%); for inhibition at 0.5 µM: Molt-4, 500 nM, read-out: Inhibition Rate at 500 nM (%)
Protocol: as §2, §3, §4

[6] = system: Human large cell immunoblastic lymphoma cell line SR; assay: Inhibition of SR cell proliferation (CellTiter luminescent viability); type: cell-based; conditions: Table IB1, ALK inhibitor-based, 96 hours, read-out: Inhibitory activity (IC50, nM) on tumor cell proliferation, SR
Protocol: as §2, §3, §4

[7] = molecular target: T1, human Cereblon WT GST-tagged protein (CRBN) (Homo sapiens, UniProt Q96SW2); assay: CRBN binding by HTRF (Cereblon binding kit)
T1 construct: purchased CISBIO 64BDCRBNPEH
T1 sequence (Q96SW2 whole entry): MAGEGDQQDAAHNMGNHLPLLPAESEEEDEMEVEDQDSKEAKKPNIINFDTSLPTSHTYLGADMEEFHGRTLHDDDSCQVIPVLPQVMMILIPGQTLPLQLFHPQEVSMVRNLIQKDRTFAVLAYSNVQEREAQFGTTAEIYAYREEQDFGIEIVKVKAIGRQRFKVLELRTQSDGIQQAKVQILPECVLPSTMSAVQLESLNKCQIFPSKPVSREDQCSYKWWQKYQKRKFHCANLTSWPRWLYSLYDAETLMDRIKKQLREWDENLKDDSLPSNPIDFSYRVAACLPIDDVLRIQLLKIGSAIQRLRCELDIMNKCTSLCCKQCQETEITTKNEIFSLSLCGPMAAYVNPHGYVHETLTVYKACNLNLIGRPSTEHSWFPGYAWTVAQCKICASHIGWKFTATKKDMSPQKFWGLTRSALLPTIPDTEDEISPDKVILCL
Procedure, shortened: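 GST-tagged human Cereblon WT was incubated 3 h at room temperature with compound, thalidomide-Re tracer and Eu anti-GST antibody. Final compound concentrations were 10 to 0.00064 µM (7 points) or 2 and 0.5 µM. Inhibition rate was calculated from HTRF 665/620 nm ratios versus solvent and blank controls.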

[8] = Table IA4, IRAK4 inhibitor-based, 96 hours
[9] = Table IA4, IRAK4 inhibitor-based, RPMI-8226, 10 nM, 96 hours

SMILES	inhibition at 0.01 µM [1] [%]	inhibition at 0.5 µM [1] [%]	inhibition at 0.5 µM [2, 8] [%]	inhibition at 0.01 µM [3, 9] [%]	inhibition at 0.01 µM [4] [%]	inhibition at 0.5 µM [4] [%]	inhibition at 0.01 µM [5] [%]	inhibition at 0.5 µM [5] [%]	inhibition at 0.5 µM [2] [%]	inhibition at 0.01 µM ([3]; RPMI-8226, 10 nM) [%]	IC50 [6] [nM]	Inhibition Rate at 0.5 μM (%) ([7]; 0.5 μM)	Inhibition Rate at 2 μM (%) ([7]; 2 μM)
CC(C)(O)c1cc2nc(C3CCN(CC4CCN(c5ccc6c(c5)C(=O)N(N5CCC(=O)NC5=O)C6=O)CC4)CC3)oc2cc1NC(=O)c1cccc(C(F)(F)F)n1 [GT-05222, N-(2-(1-((1-(2-(2,4-dioxotetrahydropyrimidin-1(2H)-yl)-1,3-dioxoisoindolin-5-yl)piperidin-4-yl)methyl)piperidin-4-yl)-5-(2-hydroxypropan-2-yl)benzo[d]oxazol-6-yl)-6-(trifluoromethyl) picolinamide]	30 to 40	25 to 30	30 to 40	30 to 40									
O=C1CCN(N2Cc3cc(CN4CCC(n5cc(NC(=O)c6coc(-c7ccnc(NCC(F)(F)F)c7)n6)c(C(F)F)n5)CC4)ccc3C2=O)C(=O)N1 [GT-05184, N-(3-(difluoromethyl)-1-(1-((2-(2,4-dioxotetrahydropyrimidin-1(2H)-yl)-1-oxoisoindolin-5-yl)methyl)piperidin-4-yl)-1H-pyrazol-4-yl)-2-(2-((2,2,2-trifluoroethyl)amino)pyridin-4-yl) oxazole-4-carboxamide]	5 to 10	80 to 100	80 to 100	20 to 25	50 to 60	80 to 100	3 to 7	80 to 100					
Cc1cc(-c2nc(C(=O)Nc3cc4oc(N5CCN(Cc6ccc7c(c6)C(=O)N(N6CCC(=O)NC6=O)C7=O)CC5)nc4nc3N3CC[C@@H](O)C3)co2)ccn1 [GT-05803, (R)—N-(2-(4-((2-(2,4-dioxotetrahydropyrimidin-1(2H)-yl)-1,3-dioxoisoindolin-5-yl)methyl)piperazin-1-yl)-5-(3-hydroxypyrrolidin-1-yl)oxazolo[4,5-b]pyridin-6-yl)-2-(2-methylpyridin-4-yl) oxazole-4-carboxamide]	30 to 40	25 to 30	20 to 25	25 to 30	50 to 60	60 to 80							
O=C1CCN(N2C(=O)c3cccc(N4CCC(CN5CCC(n6cc(NC(=O)c7cnn8ccc(N9CCOCC9)nc78)c(C(F)F)n6)CC5)CC4)c3C2=O)C(=O)N1 [GT-05224, N-(3-(difluoromethyl)-1-(1-((1-(2-(2,4-dioxotetrahydropyrimidin-1(2H)-yl)-1,3-dioxoisoindolin-4-yl)piperidin-4-yl)methyl)piperidin-4-yl)-1H-pyrazol-4-yl)-5-morpholinopyrazolo[1,5-a]pyrimidine-3-carboxamide]	15 to 20	60 to 80	30 to 40	20 to 25	50 to 60	80 to 100	0 to 3	80 to 100					
N#CC1(CNc2nc(-c3cc(NC4CCN(CC5CCN(c6cccc7c6C(=O)N(N6CCC(=O)NC6=O)C7=O)CC5)CC4)ncc3Cl)cs2)CCOCC1 [GT-08345, 4-(((4-(5-chloro-2-((1-((1-(2-(2,4-dioxotetrahydropyrimidin-1(2H)-yl)-1,3-dioxoisoindolin-4-yl)piperidin-4-yl)methyl)piperidin-4-yl)amino)pyridin-4-yl)thiazol-2-yl)amino)methyl)tetrahydro-2H-pyran-4-carbonitrile]									5 to 10	20 to 30			
Cc1cc(-c2nc(C(=O)Nc3cc4oc(N5CCN(Cc6ccc7c(c6)CN(N6CCC(=O)NC6=O)C7=O)CC5)nc4nc3N3CC[C@@H](O)C3)co2)ccn1 [GT-05750, (R)—N-(2-(4-((2-(2,4-dioxotetrahydropyrimidin-1(2H)-yl)-1-oxoisoindolin-5-yl)methyl)piperazin-1-yl)-5-(3-hydroxypyrrolidin-1-yl)oxazolo[4,5-b]pyridin-6-yl)-2-(2-methylpyridin-4-yl) oxazole-4-carboxamide]			20 to 25	25 to 30	36 to 45	80 to 100							
O=C1CCN(N2C(=O)c3ccc(N4CCC(N5CCC(CN6CCC(n7cc(NC(=O)c8cnn9ccc(N%10CCOCC%10)nc89)c(C(F)F)n7)CC6)CC5)CC4)cc3C2=O)C(=O)N1 [GT-05760, N-(3-(difluoromethyl)-1-(1-((1′-(2-(2,4-dioxotetrahydropyrimidin-1(2H)-yl)-1,3-dioxoisoindolin-5-yl)-[1,4′-bipiperidin]-4-yl)methyl)piperidin-4-yl)-1H-pyrazol-4-yl)-5-morpholinopyrazolo[1,5-a]pyrimidine-3-carboxamide]	25 to 30	30 to 40	30 to 40	25 to 30	50 to 60	80 to 100							
COc1cc(N2CCC(N3CCN(C)CC3)CC2)ccc1Nc1ncc(Cl)c(Nc2ccccc2P(C)(C)=O)n1 [brigatinib, Brigatinib, reference compound]											1000 to 5000	a (0% < a ≤ 10%)	a1 (10% < a1 ≤ 20%)
CC(C)(O)c1cc2nc(C3CCN(Cc4ccc5c(c4)CN(N4CCC(=O)NC4=O)C5=O)CC3)sc2cc1NC(=O)c1cccc(C(F)(F)F)n1 [GT-05747, N-(2-(1-((2-(2,4-dioxotetrahydropyrimidin-1(2H)-yl)-1-oxoisoindolin-5-yl)methyl)piperidin-4-yl)-5-(2-hydroxypropan-2-yl)benzo[d]thiazol-6-yl)-6-(trifluoromethyl) picolinamide]			25 to 30	25 to 30	36 to 45	80 to 100							
CC(C)(O)c1cc2nn(C3CCN(Cc4ccc5c(c4)C(=O)N(N4CCC(=O)NC4=O)C5=O)CC3)cc2cc1NC(=O)c1cccc(C(F)(F)F)n1 [GT-05752, N-(2-(1-((2-(2,4-dioxotetrahydropyrimidin-1(2H)-yl)-1,3-dioxoisoindolin-5-yl)methyl)piperidin-4-yl)-6-(2-hydroxypropan-2-yl)-2H-indazol-5-yl)-6-(trifluoromethyl) picolinamide]			25 to 30	15 to 20									
